The source of these data is patent US4713445A, “Renin inhibitors and treatments using them” (priority 1983, dated 1987).

For the test, the target named is T1, human renin (Homo sapiens, UniProt P00797).
T1 construct: angiotensin-I released from human renin substrate by human resin in human plasma; from tissue; host or cells: human plasma (containing EDTA)
T1 sequence (P00797 67-406): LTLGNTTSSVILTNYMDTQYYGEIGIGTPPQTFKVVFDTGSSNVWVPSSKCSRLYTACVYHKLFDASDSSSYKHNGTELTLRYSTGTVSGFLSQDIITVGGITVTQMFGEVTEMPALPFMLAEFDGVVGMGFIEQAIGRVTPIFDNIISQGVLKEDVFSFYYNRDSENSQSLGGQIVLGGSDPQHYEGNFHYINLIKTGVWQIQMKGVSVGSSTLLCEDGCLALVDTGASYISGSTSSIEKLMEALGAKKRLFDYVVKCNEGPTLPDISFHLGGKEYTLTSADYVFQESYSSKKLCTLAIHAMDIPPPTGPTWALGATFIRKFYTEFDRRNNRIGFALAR
The test can be described thus: human renin-renin substrate reaction in vitro; radioimmunoassay of angiotensin-I released in human plasma. The test is classed as biochemical. The following applies: for pIC50: Table 5, human renin-renin substrate reaction in vitro, read-out: IC50. From the text: Preliminary activity test results in the human […] substrate reaction in vitro are given, with comparative figures for the tetrapeptide analogue (III). […] The test results given herein are based on the methods described by J. A. Miller et al in Clinica Chimica Acta (1980) 101 5-15 and K. Poulsen and J. Jorgensen in J. Clin. Endocrinol. Metab. (1974) 39 816, and is based on the measurement, by radioimmunoassay, of angiotensin-I released from human renin substrate by human resin in human plasma. The inhibitor is dissolved in 0.01N HCl (10 μl) and added to hmman plasma (75 μl) containing EDTA, and angiotensin-I antibody (15 μl) in 3M-Tris/HCl buffer (pH 6.9). After incubation at 37° C. for 0-120 minutes, the enzymic reaction is quenched by the addition of ice-cold 0.25M Tris/HCl buffer (pH 7.4) containing 0.01% of bovine serum albumin. 125I-labelled angiotensin-I is added, followed by equilibration at 4° C. for 48 hours. Free and bound ligand are separated by the addition of dextrancoated charcoal, and the amount of bound radio-ligand determined in a gamma counter.

Setting [1] is: Table I, human renin in human plasma, read-out: IC50, μM human.

pIC50: −log10 of the molar value. Where two headings read alike, the source gives them in different places. Where a SMILES comes first, the peptide text is derived from it. The star is where a group is joined. X5 = CC(C)C[C@@H](CN[C@H](C(=O)N[C@@H](Cc1c[nH]cn1)C(=O)NCCCCCN)C(C)C)N*; X2 = CC(C)C[C@@H](CN[C@H](C(=O)N[C@@H](Cc1c[nH]cn1)C(=O)NCCCN)C(C)C)N*

The term pIC50 denotes the negative decadic logarithm of the IC50, by convention in mol/L. Take `CC(C)C[C@@H](CN[C@@H](Cc1ccccc1)C(=O)N[C@H](C(=O)N[C@@H](Cc1ccc(O)cc1)C(=O)O)C(C)C)NC(=O)[C@H](Cc1c[nH]cn1)NC(=O)[C@H](Cc1ccccc1)NC(=O)[C@@H]1CCCN1C(=O)[C@@H](N)Cc1c[nH]cn1` [Example IX]: the pIC50 was 5.60.
Regarding `CC(C)C[C@@H](CN[C@H](C(=O)N[C@@H](Cc1c[nH]cn1)C(=O)NCCCN)C(C)C)NC(=O)[C@H](Cc1c[nH]cn1)NC(=O)[C@H](Cc1ccccc1)NC(=O)[C@@H]1CCCN1C(=O)[C@H](Cc1c[nH]cn1)NC(=O)[C@@H]1CCCN1` [XVII] (H-PHPFH-X2), under setting [1], the IC50 amounted to 4.5 µM.
On the same count and under the same terms, the result for `CC(C)C[C@@H](CN[C@H](C(=O)N[C@@H](Cc1c[nH]cn1)C(=O)NCCCCCN)C(C)C)NC(=O)[C@H](Cc1c[nH]cn1)NC(=O)[C@H](Cc1ccccc1)NC(=O)[C@@H]1CCCN1C(=O)[C@H](Cc1c[nH]cn1)NC(=O)[C@@H]1CCCN1` [XVIII] (H-PHPFH-X5) reads 3 µM; that for `CC[C@H](C)[C@H](NC(=O)[C@@H](NC[C@H](CC(C)C)NC(=O)[C@H](Cc1c[nH]cn1)NC(=O)[C@H](Cc1ccccc1)NC(=O)[C@@H]1CCCN1C(=O)[C@@H](N)Cc1c[nH]cn1)C(C)C)C(=O)N[C@H](Cc1ccc(O)cc1)C(=O)O` [XVI], 1 µM.
`CC[C@H](C)[C@H](NC(=O)[C@@H](NC[C@H](CC(C)C)NC(=O)[C@H](Cc1c[nH]cn1)NC(=O)[C@H](Cc1ccccc1)NC(=O)[C@@H]1CCCN1C(=O)[C@@H](N)Cc1c[nH]cn1)C(C)C)C(=O)N[C@@H](Cc1ccc(O)cc1)C(=O)O` [Example X]: the pIC50 was 6.70.
As for `CC[C@H](C)[C@H](NC(=O)[C@@H](C[C@H](O)[C@H](CC(C)C)NC(=O)[C@H](Cc1c[nH]cn1)NC(=O)[C@H](Cc1ccccc1)NC(=O)OC(C)(C)C)C(C)C)C(=O)OC` [Example L], the IC50 (Table 2, read-out: IC50 μM v/s human renin) amounted to 0.005 µM.
Regarding `CC[C@H](C)[C@H](NC(=O)[C@@H](NC[C@H](CC(C)C)NC(=O)[C@H](Cc1c[nH]cn1)NC(=O)[C@H](Cc1ccccc1)NC(=O)[C@@H]1CCCN1C(=O)[C@@H](N)Cc1c[nH]cn1)C(C)C)C(=O)N[C@@H](Cc1c[nH]cn1)C(=O)N[C@H](CCCCN)C(=O)O` [XXI], the IC50 under setting [1] was 0.05 µM.
With `CC[C@H](C)[C@H](NC(=O)[C@@H](NC[C@H](CC(C)C)NC(=O)[C@H](Cc1c[nH]cn1)NC(=O)[C@H](Cc1ccccc1)NC(=O)[C@@H]1CCCN1C(=O)[C@@H](Cc1c[nH]cn1)NC(=O)[C@@H]1CCCN1)C(C)C)C(=O)N[C@@H](Cc1c[nH]cn1)C(=O)N[C@H](CCCCN)C(=O)O` [Example XL], the IC50 under setting [1] was 0.2 µM.
